Earlier results on one compound are cited in patent publication US20250235394A1, “BIOFILM-TARGETING NANOPARTICLES TO INCREASE THE […] OF FLUORIDE” (The Regents of The University of Michigan, priority 2021, published 2025).

The conditions of the data set: solution containing 226 ppm F as CaF2.

Consider `[Ca+2].[F-].[F-]` [CaF2, calcium fluoride], for which the precipitation in solution result is “precipitation of CaF2 promptly occurs”.
